Laboratory results from patent US8258151B2, “3-aminoimidazo [1,2-A] pyridine derivatives as SGLT inhibitors” (Merck Patent GmbH, priority 2006, dated 2012).

Key:
SGLT2 = target: T1, SGLT2 (Homo sapiens, UniProt P31639); experiment: SGLT2 activity measurement: 14C-AMG uptake in BHK cells transfected with SGLT2; format: cell-based; conditions: AMG 2 mM, 37° C., 90 min
T1 construct: expressed in transfected cells
T1 sequence (P31639 1-672): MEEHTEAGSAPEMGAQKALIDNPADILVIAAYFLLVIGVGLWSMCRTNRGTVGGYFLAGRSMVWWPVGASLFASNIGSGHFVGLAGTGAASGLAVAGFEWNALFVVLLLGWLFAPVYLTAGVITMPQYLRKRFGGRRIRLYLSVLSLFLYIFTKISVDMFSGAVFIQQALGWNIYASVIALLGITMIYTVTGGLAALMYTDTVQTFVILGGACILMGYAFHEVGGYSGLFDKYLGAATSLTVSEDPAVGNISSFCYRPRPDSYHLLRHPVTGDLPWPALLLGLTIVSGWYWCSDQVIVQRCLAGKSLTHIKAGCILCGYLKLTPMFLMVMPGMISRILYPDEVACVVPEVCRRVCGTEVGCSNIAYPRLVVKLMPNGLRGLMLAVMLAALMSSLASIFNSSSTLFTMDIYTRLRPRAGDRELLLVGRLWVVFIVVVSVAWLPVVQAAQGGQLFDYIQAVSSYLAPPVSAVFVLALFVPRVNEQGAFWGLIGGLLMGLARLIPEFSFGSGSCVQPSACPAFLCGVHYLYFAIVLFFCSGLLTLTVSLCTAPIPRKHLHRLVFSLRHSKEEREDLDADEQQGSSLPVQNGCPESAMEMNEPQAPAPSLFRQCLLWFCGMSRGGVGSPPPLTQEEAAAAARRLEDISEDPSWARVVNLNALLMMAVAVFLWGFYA
Source text: (§1) The compounds can be tested on their SGLT inhibition properties by means of BHK cells expressing SGLT1 and SGLT2. The production of the cells and the testing can be carried out as described below.
To construct the SGLT2 expression vector (KL224), the SLC5A2 gene (homologous to NM_003041) was amplified from a cDNA library using standard PCR technology and cloned over NheI/XhoI sites into PCI-neo expression vector (Promega) containing neomycin as a selection marker. In this vector, transcription used the enhancer/promoter of human cytomegalovirus and the SV40 polyadenylation signal.
(§2) The final vector KL224 together with an additional vector containing a dihydrofolate reductase gene as a selection marker was introduced into cells. Transfection into BHK21 cells (ATCC CCL-10), cultivated in DMEM medium (GIBCO/BRL), supplemented with 10% foetal calf serum (FCS) and 20 mM glutamine, was carried out using calcium phosphate transfections according to Graham, F. L. and van der Ebb, A. J. (1973), Virology 52: 456 with 5-20 μg of uncut plasmids for 10^7 cells. Stable transfectants were selected in medium containing 1 mg/ml of G418 (GIBCO/BRL) and 20-5000 nM methotrexate as final concentration, where only cells which expressed the neomycin gene and overexpressed the dhfr gene were able to grow. After growth for 2-3 weeks, the cells were cloned (0.5 cells/well) and the clones were investigated for SGLT expression in the radioactive uptake assay.
Principally, uptake of ^14C-α-methyl-D-glucopyranoside (AMG) in, for example, Xenopus oocytes injected with the corresponding cRNA has been described (for example Wen-Sen Lee et al. (1994), J. Biol. Chem. 269, 12032-12039; Guofeng You et al. (1995), J. Biol. Chem. 270, 29365-29371).
(§3) A 96-well cell-based assay was developed and adapted to HTS requirements:
(§4) BHK cells (transfected with SGLT1 or SGLT2) were seeded into 96-well microtitre plates (Cultureplates, Perkin Elmer). After at least 24 h, medium was removed and the cell layer was washed with assay buffer (140 mM NaCl, 2 mM KCl, 1 mM CaCl2, 1 mM MgCl2, 10 mM HEPES, 5 mM Tris, adjusted with 1 M KOH to pH 7.4). After addition of 40 μl of assay buffer, 50 μl of AMG (50 μM for SGLT1 and 2 mM for SGLT2) in the presence or absence of compounds, the cells were incubated in a total volume of 100 μl at 37° C. for 90 min. Supernatant was removed by suction and discarded. The cells were washed and lysed by addition of 50 μl water. After 10 minutes at room temperature 200 μl Microscint 40 (Perkin Elmer) were added. The radioactivity was counted in a Topcount microplate scintillation counter (Perkin Elmer). The non-specific uptake was determined in sodium-free assay buffer (266 mM sucrose, 2 mM KCl, 1 mM CaCl2, 1 mM MgCl2, 10 mM HEPES, 5 mM Tris, adjusted with 1 M KOH to pH 7.4).

SGLT1 = target: T2, SGLT1 (Homo sapiens, UniProt P13866); experiment: SGLT1 activity measurement: 14C-AMG uptake in BHK cells transfected with SGLT1; format: cell-based; conditions: AMG 50 μM, 37° C., 90 min
T2 construct: expressed in transfected cells
T2 sequence (P13866 1-664): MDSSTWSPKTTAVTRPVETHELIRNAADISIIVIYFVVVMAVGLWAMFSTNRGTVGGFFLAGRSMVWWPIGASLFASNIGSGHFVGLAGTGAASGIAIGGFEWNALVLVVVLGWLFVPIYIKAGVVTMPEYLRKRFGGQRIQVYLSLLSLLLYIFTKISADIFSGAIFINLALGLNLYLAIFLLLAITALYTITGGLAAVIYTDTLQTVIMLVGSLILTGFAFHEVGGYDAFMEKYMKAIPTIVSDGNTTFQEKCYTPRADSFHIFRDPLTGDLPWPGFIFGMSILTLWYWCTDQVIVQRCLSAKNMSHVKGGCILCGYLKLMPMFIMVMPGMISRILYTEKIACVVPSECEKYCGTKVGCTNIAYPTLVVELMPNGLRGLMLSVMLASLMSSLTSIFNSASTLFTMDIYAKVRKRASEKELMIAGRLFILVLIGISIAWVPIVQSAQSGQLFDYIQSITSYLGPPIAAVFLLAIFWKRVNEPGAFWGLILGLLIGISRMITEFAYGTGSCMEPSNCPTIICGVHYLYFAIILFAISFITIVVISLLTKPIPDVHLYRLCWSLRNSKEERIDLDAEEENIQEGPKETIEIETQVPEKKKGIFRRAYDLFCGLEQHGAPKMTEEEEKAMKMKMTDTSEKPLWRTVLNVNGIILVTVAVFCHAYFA
Source text: as §1
To construct the SGLT1 expression vector (KL225), the SLC5A1 gene (homologous to NM_000343) was amplified from a cDNA library using standard PCR technology and cloned over NheI/XhoI sites into pcDNA3.1 expression vector (Invitrogen) containing neomycin as a selection marker. In this vector, transcription uses the enhancer/promoter of human cytomegalovirus.
as §2, with “KL225” for “KL224”, “assay. […]” for “assay.”
as §3, §4

Q: How did the IC50 (SGLT2) turn out when CCc1cc(OC2COC(=O)O2)cc(OCC(N)=O)c1-c1nc2ccc(F)cn2c1Nc1c(C)cccc1C (centres unmarked) [Compound A198, 2-[2-(Aminocarbonylmethoxy)-4-(2-oxo-1,3-dioxolan-4-yloxy)-6-ethylphenyl]-3-(2,6-dimethyl-phenylamino)-6-fluoroimidazo[1,2-a]pyridine] was run?
A: The IC50 was 10 to 1000 nM.

Q: What about the IC50 (SGLT1) of the same compound?
A: Its IC50 is 1000 to 10000 nM.

Q: With COc1cc(OC)c(-c2nc3ccc(F)cn3c2Nc2c(C)cc(F)cc2C)c(OCC(N)=O)c1 [Compound A200, 2-[2-(Aminocarbonylmethoxy)-4-methoxy-6-methoxyphenyl]-3-(2,6-dimethyl-4-fluorophenyl-amino)-6-fluoroimidazo[1,2-a]pyridine] as the compound, how does the IC50 (SGLT2) read?
A: The IC50 was 10 to 1000 nM.

Q: What about the IC50 (SGLT1) of the same compound?
A: The IC50 was > 10000 nM.

Q: Which IC50 (SGLT2) does the source give for COc1cc(C)c(-c2nc3ccc(F)cn3c2Nc2c(C)cccc2[N+](=O)[O-])c(OCC(N)=O)c1 [Compound A232, 2-[2-(Aminocarbonylmethoxy)-4-methoxy-6-methylphenyl]-3-(2-methyl-6-nitrophenylamino)-6-fluoroimidazo[1,2-a]pyridine] here?
A: Its IC50 is 10 to 1000 nM.

Q: And the IC50 (SGLT1)?
A: The IC50 was 1000 to 10000 nM.

Q: How did the IC50 (SGLT2) turn out when CCc1cc(OC)cc(OCC(N)=O)c1-c1nc2ccc(F)cn2c1Nc1c(C)cc(F)cc1C [Compound A235, 2-[2-(Aminocarbonylmethoxy)-4-methoxy-6-ethylphenyl]-3-(2,6-dimethyl-4-fluorophenyl-amino)-6-fluoroimidazo[1,2-a]pyridine] was run?
A: The IC50 was 10 to 1000 nM.

Q: And the IC50 (SGLT1)?
A: Its IC50 is 1000 to 10000 nM.

Q: For CCc1cc(OC)cc(OCC(N)=O)c1-c1nc2ccc(F)cn2c1Nc1c(C)cccc1C [Compound A185, 2-[2-(Aminocarbonylmethoxy)-4-methoxy-6-ethylphenyl]-3-(2,6-dimethylphenylamino)-6-fluoroimidazo[1,2-a]pyridine], which IC50 (SGLT2) is on record?
A: Its IC50 is 10 to 1000 nM.

Q: And the IC50 (SGLT1)?
A: The IC50 was 1000 to 10000 nM.

Q: For CCc1cc(O)cc(OCC(N)=O)c1-c1nc2ccc(F)cn2c1Nc1c(C)cccc1C [Compound A102, 2-[2-(Aminocarbonylmethoxy)-6-ethyl-4-hydroxy-phenyl]-3-(2,6-dimethylphenylamino)-6-fluoro-imidazo[1,2-a]pyridine], which IC50 (SGLT2) is on record?
A: The IC50 was 10 to 1000 nM.

Q: And the IC50 (SGLT1)?
A: The IC50 was 1000 to 10000 nM.

Q: How did the IC50 (SGLT2) turn out when COc1ccc(-c2nc3ccc(F)cn3c2Nc2c(C)cccc2C)c(OCC(N)=O)c1OC [Compound A188, 2-[2-(Aminocarbonylmethoxy)-3,4-dimethoxy-phenyl]-3-(2,6-dimethylphenylamino)-6-fluoro-imidazo[1,2-a]pyridine] was run?
A: Its IC50 is 1000 to 10000 nM.

Q: And the IC50 (SGLT1)?
A: Its IC50 is > 10000 nM.

Q: Which IC50 (SGLT2) does the source give for COc1cc(C)c(-c2nc3ccc(F)cn3c2Nc2c(Br)cccc2Br)c(OCC(N)=O)c1 [Compound A233, 2-[2-(Aminocarbonylmethoxy)-4-methoxy-6-methylphenyl]-3-(2,6-dibromophenylamino)-6-fluoroimidazo[1,2-a]pyridine] here?
A: Its IC50 is 10 to 1000 nM.

Q: And the IC50 (SGLT1)?
A: The IC50 was > 10000 nM.

Q: With Cc1cccc(C)c1Nc1c(-c2ccccc2OCC(N)=O)nc2c(C)cccn12 [Compound A8, 2-[2-(Aminocarbonylmethoxy)phenyl]-3-(2,6-di-methylphenylamino)-8-methylimidazo[1,2-a]-pyridine] as the compound, how does the IC50 (SGLT2) read?
A: The IC50 was 1000 to 10000 nM.

Q: And the IC50 (SGLT1)?
A: The IC50 was > 10000 nM.

Q: With COC(=O)Cc1ccc(OCC(N)=O)c(-c2nc3ccccn3c2Nc2c(C)cccc2C)c1 [Compound A183, 2-[2-(Aminocarbonylmethoxy)-5-(methoxycarbonylmethyl)phenyl]-3-(2,6-dimethylphenylamino)imidazo[1,2-a]pyridine] as the compound, how does the IC50 (SGLT2) read?
A: Its IC50 is 1000 to 10000 nM.

Q: And the IC50 (SGLT1)?
A: The IC50 was > 10000 nM.

Q: How did the IC50 (SGLT2) turn out when COc1cc(C)c(-c2nc3c(F)cc(F)cn3c2Nc2c(Cl)cccc2Cl)c(OCC(N)=O)c1 [Compound A226, 2-[2-(Aminocarbonylmethoxy)-4-methoxy-6-methylphenyl]-3-(2,6-dichlorophenylamino)-6,8-difluoroimidazo[1,2-a]pyridine] was run?
A: Its IC50 is 10 to 1000 nM.

Q: And the IC50 (SGLT1)?
A: The IC50 was 1000 to 10000 nM.

Q: With COc1cc(C)c(-c2nc3c(F)cc(F)cn3c2Nc2c(Cl)cc(F)cc2Cl)c(OCC(N)=O)c1 [Compound A225, 2-[2-(Aminocarbonylmethoxy)-4-methoxy-6-methylphenyl]-3-(4-fluoro-2,6-dichlorophenyl-amino)-6,8-difluoroimidazo[1,2-a]pyridine] as the compound, how does the IC50 (SGLT2) read?
A: Its IC50 is 10 to 1000 nM.

Q: What about the IC50 (SGLT1) of the same compound?
A: The IC50 was 1000 to 10000 nM.

Q: For Cc1cccc(C)c1Nc1c(-c2c(O)cccc2OCC(N)=O)nc2ccc(F)cn12 [Compound A175, 2-[2-(Aminocarbonylmethoxy)-6-hydroxyphenyl]-3-(2,6-dimethylphenylamino)-6-fluoroimidazo-[1,2-a]pyridine], which IC50 (SGLT2) is on record?
A: The IC50 was 10 to 1000 nM.

Q: And the IC50 (SGLT1)?
A: Its IC50 is > 10000 nM.

Q: Which results are given for NC(=O)COc1ccccc1-c1nc2ccccn2c1Nc1c(Cl)cccc1Cl [Compound A5, 2-[2-(Aminocarbonylmethoxy)phenyl]-3-(2,6-di-chlorophenylamino)imidazo[1,2-a]pyridine]?
A: IC50 (SGLT2): 10 to 1000 nM; IC50 (SGLT1): > 10000 nM

Q: What does the source list for Cc1cccc(C)c1Nc1c(-c2c(C)cc(OC3COC(=O)O3)cc2OCC(N)=O)nc2ccc(F)cn12 (centres unmarked) [Compound A190, 2-[2-(Aminocarbonylmethoxy)-4-(2-oxo-1,3-dioxolan-4-yloxy)-6-methylphenyl]-3-(2,6-dimethylphenylamino)-6-fluoroimidazo[1,2-a]-pyridine]?
A: IC50 (SGLT2): 10 to 1000 nM; IC50 (SGLT1): > 10000 nM

Q: Which IC50 (SGLT2) does the source give for COc1cc(Cl)c(-c2nc3ccc(F)cn3c2Nc2c(C)cccc2C)c(OCC(N)=O)c1 [Compound A197, 2-[2-(Aminocarbonylmethoxy)-4-methoxy-6-chlorophenyl]-3-(2,6-dimethylphenylamino)-6-fluoroimidazo[1,2-a]pyridine] here?
A: The IC50 was 10 to 1000 nM.

Q: What about the IC50 (SGLT1) of the same compound?
A: The IC50 was > 10000 nM.
